Reference: patent publication US8829007B2 (priority 2009, dated 2014)
Where two headings read alike, the source gives them in different places.

What was measured:
[1] = system: influenza A virus (A/PR/8/34); test: microbe, parasite or virus in culture; assay type: cell-based
[2] = system: A/PR/8/34 influenza virus; test: microbe, parasite or virus in culture; assay type: cell-based
[3] = mean all, MDCK cells infected with A/PR/8/34, cell protection (CPE), read-out: IC50
[4] = mean all, bDNA viral RNA in MDCK cells infected with A/PR/8/34, read-out: EC50
[5] = Influenza A virus, PR/8, MDCK, mean all, A/PR/8/34 infected MDCK cells, CPE assay, read-out: IC50
[6] = Influenza A virus, PR/8, MDCK, mean all, A/PR/8/34 influenza virus in MDCK cells, bDNA assay, read-out: EC50
[7] = Influenza A virus, PR/8, MDCK, MDCK cells infected with A/PR/8/34, survival of infected cells, class symbols, read-out: IC50 (mean all)
[8] = Influenza A virus, PR/8, MDCK, MDCK cells infected with A/PR/8/34, replication of influenza virus (viral RNA, bDNA), class symbols, read-out: EC50 (mean all)
[9] = Influenza A virus, PR/8, MDCK, MDCK cells, A/PR/8/34, ATP readout, mean all, read-out: Cell Flu, MDCK protection, ATP (All: IC50: uM)(Mean (All))
[10] = Influenza A virus, PR/8, 30 h, HA(−) 30 hr, A/PR/8, bDNA, mean all, read-out: Cell Influenza HA(−) 30 hr A/PR/8 bDNA:bDNA EC50 uM(Mean (All))
[11] = Influenza A virus, PR/8, MDCK, CPE assay, A/PR/8/34 infected MDCK cells, class symbols, read-out: IC50 (mean all)
[12] = Influenza A virus, PR/8, MDCK, bDNA assay, A/PR/8/34 influenza virus replication in MDCK cells, class symbols, read-out: EC50 (mean all)
[13] = mean all, A/PR/8/34 infected MDCK cells, CPE assay, read-out: IC50
[14] = mean all, A/PR/8/34 influenza virus in MDCK cells, bDNA assay, read-out: EC50
[15] = Influenza A virus, PR/8, MDCK, MDCK cells infected with A/PR/8/34, cell protection (CPE), read-out: IC50 (mean all)
[16] = Influenza A virus, PR/8, MDCK, MDCK cells infected with A/PR/8/34, bDNA viral RNA, read-out: EC50 (mean all)
[17] = CPE assay, A/PR/8/34 infected MDCK cells, class symbols, read-out: IC50 (mean all)
[18] = bDNA assay, A/PR/8/34 influenza virus replication in MDCK cells, class symbols, read-out: EC50 (mean all)

(R)-methyl 2-(3-((2-(5-chloro-1H-pyrrolo[2,3-b]pyridin-3-yl)-5-fluoropyrimidin-4-ylamino)methyl)piperidine-1-carboxamido)ethanoate [Compound 125]
IC50 ([1]; read-out: IC50 (mean all)): < 5 µM | EC50 ([2]; read-out: EC50 (mean all)): < 5 µM

O=C(NC1CCCC(Nc2nc(-c3c[nH]c4ncc(Cl)cc34)ncc2F)C1)C1CC1 (stereo not shown) [Compound 684]
IC50 [1, 3]: < 5 µM | EC50 [2, 4]: < 5 µM

COCCC(=O)N1CCC[C@@H](Nc2nc(-c3c[nH]c4ncc(Cl)cc34)ncc2F)C1 [Compound 320]
IC50 [1, 5]: 5 to 20 µM | EC50 [2, 6]: 5 to 10 µM

CCOC(=O)[C@H]1CCCC[C@@H]1Nc1nc(-c2c[nH]c3ncc(Cl)cc23)ncc1F [Compound 561, (1S,2S)-ethyl 2-(2-(5-chloro-1H-pyrrolo[2,3-b]pyridin-3-yl)-5-fluoropyrimidin-4-ylamino)cyclohexanecarboxylate]
IC50 [1, 7]: 5 to 20 µM | EC50 [2, 8]: < 5 µM

O=C(NC1CC2CC(Nc3nc(-c4c[nH]c5ncc(F)cc45)ncc3F)C1C2)N1CCCC1 (single isomer, unassigned) [Compound 1045, N-[6-[[5-fluoro-2-(5-fluoro-1H-pyrrolo[2,3-b]pyridin-3-yl)pyrimidin-4-yl]amino]norbornan-2-yl]pyrrolidine-1-carboxamide]
IC50 [1, 9]: < 5 µM | EC50 [2, 10]: < 5 µM

CCOC(=O)C1=CC(Nc2nc(-c3c[nH]c4ncc(Cl)cc34)ncc2F)[C@@H](NC(C)=O)[C@H](OC(CC)CC)C1 (stereo partly shown) [Compound 670]
IC50 [1, 11]: > 10 µM | EC50 [2, 12]: > 3.3 µM

CCCS(=O)(=O)N1CCCC(Nc2ccnc(-c3c[nH]c4ncc(Cl)cc34)n2)C1 (stereo not shown) [Compound 464]
IC50 [1, 13]: < 5 µM | EC50 [2, 14]: < 5 µM

CCOC(=O)NC1CCCC(Nc2nc(-c3c[nH]c4ncc(Cl)cc34)ncc2F)C1 (stereo not shown) [Compound 700]
IC50 [1, 3]: < 5 µM | EC50 [2, 4]: < 5 µM

COC(=O)NC1CCCC(Nc2nc(-c3c[nH]c4ncc(Cl)cc34)ncc2F)C1 (stereo not shown) [Compound 453]
IC50 [1, 13]: < 5 µM | EC50 [2, 14]: < 5 µM

CC(C)(CC(=O)O)CC(=O)N1CCC[C@H](CNc2nc(-c3c[nH]c4ncc(Cl)cc34)ncc2F)C1 [Compound 80, (R)-5-(3-((2-(5-chloro-1H-pyrrolo[2,3-b]pyridin-3-yl)-5-fluoropyrimidin-4-ylamino)methyl)piperidin-1-yl)-3,3-dimethyl-5-oxopentanoic acid]
IC50 [1, 15]: < 5 µM | EC50 [2, 16]: < 5 µM

O=C(OC1CCOC1)N1CCC[C@H](Nc2nc(-c3c[nH]c4ncc(Cl)cc34)ncc2F)C1 (stereo partly shown) [Compound 443]
IC50 [1, 5]: < 5 µM | EC50 [2, 6]: < 5 µM

CCCC(=O)N1CCCC[C@@H]1CNc1nc(-c2c[nH]c3ncc(Cl)cc23)ncc1F [Compound 295, (R)-1-(2-((2-(5-chloro-1H-pyrrolo[2,3-b]pyridin-3-yl)-5-fluoropyrimidin-4-ylamino)methyl)piperidin-1-yl)butan-1-one]
IC50 [1, 15]: < 5 µM | EC50 [2, 16]: < 5 µM

CS(=O)(=O)N1CC[C@H](Nc2nc(-c3c[nH]c4ncc(Cl)cc34)ncc2F)C1 [Compound 398, (S)-2-(5-chloro-1H-pyrrolo[2,3-b]pyridin-3-yl)-5-fluoro-N-(1-(methylsulfonyl)pyrrolidin-3-yl)pyrimidin-4-amine]
IC50 [1, 5]: < 5 µM | EC50 [2, 6]: < 5 µM

CCOC(=O)NC(=O)N1CCC[C@@H](CNc2nc(-c3c[nH]c4ncc(Cl)cc34)ncc2F)C1 [Compound 26, (S)-ethyl 3-((2-(5-chloro-1H-pyrrolo[2,3-b]pyridin-3-yl)-5-fluoropyrimidin-4-ylamino)methyl)piperidine-1-carbonylcarbamate]
IC50 [1, 15]: < 5 µM | EC50 [2, 16]: < 5 µM

Fc1cnc(-c2c[nH]c3ncc(Cl)cc23)nc1N[C@H]1CCC[C@@H](c2nnn[nH]2)C1 [Compound 855, N-((1S,3R)-3-(1H-tetrazol-5-yl)cyclohexyl)-2-(5-chloro-1H-pyrrolo[2,3-b]pyridin-3-yl)-5-fluoropyrimidin-4-amine]
IC50 ([1]; Influenza A virus, PR/8, MDCK, mean all, A/PR/8/34 infected MDCK cells, cell protection (CPE), read-out: IC50): < 5 µM | EC50 ([2]; Influenza A virus, PR/8, mean all, A/PR/8/34 influenza virus replication, bDNA, read-out: EC50): < 5 µM

O=C(COc1ccccc1)N1CCC[C@H](CNc2nc(-c3c[nH]c4ncc(Cl)cc34)ncc2F)C1 [Compound 94, (R)-1-(3-((2-(5-chloro-1H-pyrrolo[2,3-b]pyridin-3-yl)-5-fluoropyrimidin-4-ylamino)methyl)piperidin-1-yl)-2-phenoxyethanone]
IC50 [1, 15]: < 5 µM | EC50 [2, 16]: < 5 µM

COc1ccccc1C(=O)N1CCC[C@H](CNc2nc(-c3c[nH]c4ncc(Cl)cc34)ncc2F)C1 [Compound 113, (R)-(3-((2-(5-chloro-1H-pyrrolo[2,3-b]pyridin-3-yl)-5-fluoropyrimidin-4-ylamino)methyl)piperidin-1-yl)(2-methoxyphenyl)methanone]
IC50 [1, 15]: < 5 µM | EC50 [2, 16]: < 5 µM

NC(=O)CN1CCCC(Nc2nc(-c3c[nH]c4ncc(F)cc34)ncc2F)C1 (stereo not shown) [Compound 613]
IC50 [1, 17]: < 5 µM | EC50 [2, 18]: < 5 µM

O=C1CCCN1[C@@H]1CCC[C@H](Nc2nc(-c3c[nH]c4ncc(Cl)cc34)ncc2F)C1 [Compound 956]
IC50 ([1]; Influenza A virus, PR/8, MDCK, mean all, survival of A/PR/8/34 infected MDCK cells (CPE assay), read-out: IC50): < 5 µM | EC50 ([2]; Influenza A virus, PR/8, mean all, replication of A/PR/8/34 influenza virus (bDNA assay), read-out: EC50): < 5 µM

N#CC[C@]1(O)CCC[C@H](Nc2nc(-c3c[nH]c4ncc(F)cc34)ncc2F)C1 [Compound 979, 2-((1S,3S)-3-(5-fluoro-2-(5-fluoro-1H-pyrrolo[2,3-b]pyridin-3-yl)pyrimidin-4-ylamino)-1-hydroxycyclohexyl)ethanenitrile]
IC50 [1, 9]: < 5 µM | EC50 [2, 10]: < 5 µM

CC1(C(=O)O)CCCCC1Nc1nc(-c2c[nH]c3ncc(F)cc23)ncc1F (stereo not shown) [Compound 678]
IC50 [1, 3]: < 5 µM | EC50 [2, 4]: < 5 µM

C=CC1(O)CCCC(Nc2nc(-c3c[nH]c4ncc(Cl)cc34)ncc2F)C1 (stereo not shown) [Compound 627]
IC50 [1, 17]: < 5 µM | EC50 [2, 18]: < 5 µM

N#Cc1cnc(-c2c[nH]c3ncc(Cl)cc23)nc1N[C@H]1CCCN(CC(N)=O)C1 [Compound 654]
IC50 [1, 11]: 5 to 20 µM | EC50 [2, 12]: 5 to 10 µM

C[C@@]1(O)CCC[C@H](Nc2nc(-c3c[nH]c4ncc(Cl)cc34)ncc2F)[C@H]1O [Compound 860]
IC50 ([1]; read-out: IC50): < 5 µM | EC50 ([2]; mean all, A/PR/8/34 influenza virus replication, bDNA, read-out: EC50): < 5 µM

CC(=O)N1CCCC[C@@H]1CNc1nc(-c2c[nH]c3ncc(Cl)cc23)ncc1F [Compound 179, (R)-1-(2-((2-(5-chloro-1H-pyrrolo[2,3-b]pyridin-3-yl)-5-fluoropyrimidin-4-ylamino)methyl)piperidin-1-yl)ethanone]
IC50 [1, 15]: < 5 µM | EC50 [2, 16]: < 5 µM

O=C(CC(F)(F)F)N1CCCC[C@@H]1CNc1nc(-c2c[nH]c3ncc(Cl)cc23)ncc1F [Compound 280, (R)-1-(2-((2-(5-chloro-1H-pyrrolo[2,3-b]pyridin-3-yl)-5-fluoropyrimidin-4-ylamino)methyl)piperidin-1-yl)-3,3,3-trifluoropropan-1-one]
IC50 [1, 15]: < 5 µM | EC50 [2, 16]: < 5 µM

CCS(=O)(=O)N1CCC[C@@H](Nc2nc(-c3c[nH]c4ncc(Cl)cc34)ncc2F)C1 [Compound 321, (R)-2-(5-chloro-1H-pyrrolo[2,3-b]pyridin-3-yl)-N-(1-(ethylsulfonyl)piperidin-3-yl)-5-fluoropyrimidin-4-amine]
IC50 [1, 5]: 5 to 20 µM | EC50 [2, 6]: < 5 µM

O=C(c1ccccc1Cl)N1CCC[C@H](CNc2nc(-c3c[nH]c4ncc(Cl)cc34)ncc2F)C1 [Compound 84, (R)-(3-((2-(5-chloro-1H-pyrrolo[2,3-b]pyridin-3-yl)-5-fluoropyrimidin-4-ylamino)methyl)piperidin-1-yl)(2-chlorophenyl)methanone]
IC50 [1, 15]: < 5 µM | EC50 [2, 16]: < 5 µM

CC(C)C(=O)NC1CCCC(Nc2nc(-c3c[nH]c4ncc(Cl)cc34)ncc2F)C1 (stereo not shown) [Compound 685]
IC50 [1, 3]: < 5 µM | EC50 [2, 4]: < 5 µM

OCC(O)CN1CCCC(Nc2nc(-c3c[nH]c4ncc(Cl)cc34)ncc2F)C1 [Compound 525, 3-((S)-3-((2-(5-chloro-1H-pyrrolo[2,3-b]pyridin-3-yl)-5-fluoropyrimidin-4-ylamino)piperidin-1-yl)propane-1,2-diol]
IC50 [1, 7]: < 5 µM | EC50 [2, 8]: < 5 µM

O=C(C1CCCO1)N1CCCC(Nc2nc(-c3c[nH]c4ncc(Cl)cc34)ncc2F)C1 (stereo not shown) [Compound 660]
IC50 [1, 17]: < 5 µM | EC50 [2, 18]: < 5 µM

CCC(=O)N1CCC[C@H](Nc2nc(-c3c[nH]c4ncc(Cl)cc34)ncc2F)C1 [Compound 435]
IC50 [1, 5]: < 5 µM | EC50 [2, 6]: < 5 µM
